This assay has as its target T1, purified recombinant human Aggrecanase-1 (rAgg1) (Homo sapiens, UniProt O75173).
T1 sequence (O75173 213-837): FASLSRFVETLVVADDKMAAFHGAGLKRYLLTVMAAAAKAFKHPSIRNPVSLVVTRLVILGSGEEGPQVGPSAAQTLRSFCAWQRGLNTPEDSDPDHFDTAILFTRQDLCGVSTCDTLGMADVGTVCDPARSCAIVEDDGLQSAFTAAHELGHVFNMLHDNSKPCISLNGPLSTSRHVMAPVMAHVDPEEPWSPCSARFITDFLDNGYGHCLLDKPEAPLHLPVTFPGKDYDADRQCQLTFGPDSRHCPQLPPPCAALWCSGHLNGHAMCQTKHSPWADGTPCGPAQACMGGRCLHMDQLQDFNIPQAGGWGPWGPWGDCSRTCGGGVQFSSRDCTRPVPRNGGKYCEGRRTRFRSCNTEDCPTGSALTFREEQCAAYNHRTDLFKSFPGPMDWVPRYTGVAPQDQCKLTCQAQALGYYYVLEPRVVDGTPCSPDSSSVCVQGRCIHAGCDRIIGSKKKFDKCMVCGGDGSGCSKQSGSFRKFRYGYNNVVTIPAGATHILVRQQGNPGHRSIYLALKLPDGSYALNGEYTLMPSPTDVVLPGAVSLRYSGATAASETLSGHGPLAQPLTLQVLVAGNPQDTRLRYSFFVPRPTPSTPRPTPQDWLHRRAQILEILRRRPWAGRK
The experiment in a line: In vitro fluorescence screen for Aggrecanase-1 inhibitors. The class given is biochemical. The following applies: Table 1; for IC50: read-out: Agg1 IC50.

Where only a bound is given, the exact number is not on record here.

As to `C#Cc1ccc(-c2cccc(CNC(=O)[C@H](CCC(=O)O)NC(=O)c3ccc(-c4ccccc4)cc3)c2)cc1` [Example 10P, N^2-(biphenyl-4-ylcarbonyl)-N^1-[(4′-ethynylbiphenyl-3-yl)methyl]-L-α-glutamine], the IC50 is 0.7 µM.
In the case of `C#Cc1ccc(-c2ccc(C(=O)N[C@@H](CCC(=O)O)C(=O)NCc3ccccc3)cc2)cc1` [Example 12B, N^1-benzyl-N^2-[(4′-ethynyl-1,1′-biphenyl-4-yl)carbonyl]-L-α-glutamine], the 50% inhibitory concentration (IC50) stood at 35 µM.
For `O=C(O)CC[C@H](NC(=O)c1ccc(-c2cccnc2)cc1)C(=O)NCc1ccccc1` [Example 12C, N^1-benzyl-N^2-(4-pyridin-3-ylbenzoyl)-L-α-glutamine], the IC50 is 25 µM.
Take `O=C(O)CC[C@H](NC(=O)c1ccc(-c2nccs2)cc1)C(=O)NCc1ccccc1` [Example 12D, N^1-benzyl-N^2-[4-(1,3-thiazol-2-yl)benzoyl]-L-α-glutamine]: the IC50 was over 100 µM.
In the case of `O=C(O)CC[C@H](NC(=O)c1ccc(-c2ccccn2)cc1)C(=O)NCc1ccccc1` [Example 12E, N^1-benzyl-N^2-(4-pyridin-2-ylbenzoyl)-L-α-glutamine], the IC50 stood at 1.8 µM.
As for `Cc1ccc(C)c(-c2ccc(C(=O)N[C@@H](CCC(=O)O)C(=O)NCc3ccccc3)cc2)c1` [Example 13B, N^1-benzyl-N^2-[(2′,5′-dimethyl-1,1′-biphenyl-4-yl)carbonyl]-L-α-glutamine], the half-maximal inhibitory concentration (IC50) was about 50 µM.
On to `CCc1ccc(-c2ccc(C(=O)N[C@@H](CCC(=O)O)C(=O)NCc3ccccc3)cc2)cc1` [Example 13C, N^1-benzyl-N^2-[(4′-ethyl-1,1′-biphenyl-4-yl)carbonyl]-L-α-glutamine], for which the IC50 was determined as 9.6 µM.
As for `CCOc1ccccc1-c1ccc(C(=O)N[C@@H](CCC(=O)O)C(=O)NCc2ccccc2)cc1` [Example 13E, N^1-benzyl-N^2-[(2′-ethoxy-1,1′-biphenyl-4-yl)carbonyl]-L-α-glutamine], the IC50 was about 25 µM.
With `Cc1cccc(C)c1-c1ccc(C(=O)N[C@@H](CCC(=O)O)C(=O)NCc2ccccc2)cc1` [Example 13F, N^1-benzyl-N^2-[(2′,6′-dimethyl-1,1′-biphenyl-4-yl)carbonyl]-L-α-glutamine], the IC50 was about 0.2 µM.
Consider `C=Cc1ccc(-c2ccc(C(=O)N[C@@H](CCC(=O)O)C(=O)NCc3ccccc3)cc2)cc1` [Example 13G, N^1-benzyl-N^2-[(4′-vinyl-1,1′-biphenyl-4-yl)carbonyl]-L-α-glutamine], for which the IC50 is about 2.5 µM.
With `CCOc1ccc(-c2ccc(C(=O)N[C@@H](CCC(=O)O)C(=O)NCc3ccccc3)cc2)cc1` [Example 14, N^1-benzyl-N^2-[(4′-ethoxy-1,1′-biphenyl-4-yl)carbonyl]-L-α-glutamine], the “Agg1 % @ concentration” value (@ 16,700 (nM)) came to 60% @.
`CCCOc1ccc(-c2ccc(C(=O)N[C@@H](CCC(=O)O)C(=O)NCc3ccccc3)cc2)cc1` [Example 15A, N^1-benzyl-N^2-[(4′-propoxy-1,1′-biphenyl-4-yl)carbonyl]-L-α-glutamine]: the IC50 was over 22 µM.
Regarding `CCCCOc1ccc(-c2ccc(C(=O)N[C@@H](CCC(=O)O)C(=O)NCc3ccccc3)cc2)cc1` [Example 15B, N^1-benzyl-N^2-[(4′-butoxy-1,1′-biphenyl-4-yl)carbonyl]-L-α-glutamine], the “Agg1 % @ concentration” value (@ 7,500 (nM)) worked out at 67% @.
The same measure, in the same setting: then `O=C(O)CC[C@H](NC(=O)c1ccc(-c2ccc(OCC3CCC3)cc2)cc1)C(=O)NCc1ccccc1` [Example 15C, N^1-benzyl-N^2-{[4′-(cyclobutylmethoxy)-1,1′-biphenyl-4-yl]carbonyl}-L-α-glutamine], with 50% @; and `O=C(O)CC[C@H](NC(=O)c1ccc(-c2ccc(OCC3CCCCC3)cc2)cc1)C(=O)NCc1ccccc1` [Example 15D, N^1-benzyl-N^2-{[4′-(cyclohexylmethoxy)-1,1′-biphenyl-4-yl]carbonyl}-L-α-glutamine], with 86% @.

Values taken from patent US7998965B2, “Glutamate aggrecanase inhibitors” (Wyeth LLC, priority 2005, dated 2011).
